Measurements taken from patent US11602534B2, “Pyrimidine derivative kinase inhibitors” (HEFEI INSTITUTES OF PHYSICAL SCIENCE, CHINESE ACADEMY OF …, priority 2017, dated 2023).

Experiments:
FLT3-ITD-BaF3 = test: Proliferation of FLT3-ITD-BaF3 cells, CCK8 cell viability assay; type: cell-based; conditions: Mus musculus, 72 hours, stably expressing FLT3/ITD
How it was run: (§1)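 Murine BaF3 cells made IL-3-independent by retroviral transduction of human kinase domains fused to N-terminal TEL or TPR fragments; parental BaF3 included. Living cells quantified by CCK8 (dehydrogenase activity) read-out, giving GI50 in μM.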

TEL-PDGFRα-BaF3 = test: Proliferation of TEL-PDGFRα-BaF3 cells, CCK8 cell viability assay; type: cell-based; conditions: Mus musculus, 72 hours, stably expressing PDGFRα kinase
How it was run: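 Mouse BaF3 ± TEL-kinase fusion (human cKIT/PDGFRα/PDGFRβ kinase region, MSCV-Puro retrovirus, IL-3 removed → kinase-addicted). Viability by CCK8 (dehydrogenase), GI50 μM.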

[1] = tested on: human acute myeloid leukemia cell strain OCI-AML-3; test: Proliferation of OCI-AML-3 cells, Cell Titer-Glo; type: cell-based; conditions: 72 hours, FLT3 A680V
Procedure: In addition, in this example the inhibitory activity of preferred compounds (Compound 5 and Compound 135) was tested against the following cell strains: human acute myeloid leukemia cell strain MV4-11 (expressing FLT3/ITD mutant gene), human acute myeloid leukemia cell strain MOLM-13 (expressing FLT3/ITD mutant gene and wild-type FLT3 gene), human acute myeloid leukemia cell strain MOLM-14 (expressing FLT3/ITD mutant gene and wild-type FLT3 gene), human acute myeloid leukemia cell strain OCI-AML-3 (expressing FLT3 A680V mutant gene), human chronic lymphatic leukemia cell strain MEC-1, Chinese hamster lung (CHL) cells, Chinese hamster ovary (CHO) cells, wherein all the cells were purchased from ATCC. In the example the compounds of the present invention were added respectively into the above cells at different concentrations (0.000508 μM, 0.00152 μM, 0.00457 μM, 0.0137 μM, 0.0411 μM, 0.123 μM, 0.370 μM, 1.11 μM, 3.33 μM, 10 μM in DMSO) and the cells were incubated for 72 hours. The number of viable cells was determined by quantification of ATP in living cells using Cell Titer-Glo® (Promega, the USA) Luminescent Cell Viability Assay kit and thereby GI50 was calculated.

[2] = Phosphorylation of STATS downstream of FLT3 in AML cells; type: cell-based, human; conditions: MV-4-11, MOLM13 and MOLM-14; 4 hours; compounds 0.01-3 μM, PKC412 1 μM
Procedure: In cells having FLT3 gene and/or FLT3/ITD mutant gene, specifically, human acute myeloid leukemia cells MV4-11 (expressing FLT3/ITD mutant gene) cell strain and human acute myeloid leukemia cells MOLM-13 and MOLM-14 (expressing FLT3/ITD mutant gene and wild-type FLT3 gene) cell strains, Compound 5, Compound 135 and a FLT3 kinase inhibitor, PKC412 (purchased from Hao Yuan Chemexpress Company, Shanghai), which was used as the control, were evaluated for their effects in cells on phosphorylation of FLT3 and FLT3/ITD protein kinase and phosphorylation of the closely-related STATS protein which is downstream of FLT3 signaling pathways, as well as their effects on phosphorylation of other relevant protein kinases such as ERK and AKT, by assaying a number of cellular biochemical and functional endpoints. In addition, the effects on C-Myc and phosphorylation of the transcription factor NF-κB subunit p65 was also examined (FIGS. 1a-1f). Compound 5 and Compound 135 at different concentrations (0 μM, 0.01 μM, 0.03 μM, 0.1 μM, 0.3 μM, 1 μM, 3 μM in DMSO) and the FLT3 kinase inhibitor PKC412 (1 μM in DMSO) were used to treat acute myeloid leukemia cells MV-4-11, MOLM13 and MOLM-14 that had FLT3 and/or FLT3/ITD gene for 4 hours, respectively, and then the samples were collected. The effects of the compounds on the phosphorylation of proteins such as STATS, C-Myc, ERK, NF-κB p65, AKT in cells were tested (FIGS. 1a-1f).

P210/T315I-BaF3 = test: Proliferation of P210/T315I-BaF3 cells, CCK8 cell viability assay; type: cell-based; conditions: Mus musculus, 72 hours, stably expressing BCR-ABL/T315I
How it was run: as §1

GI50 (FLT3-ITD-BaF3) [nM]	GI50 (TEL-PDGFRα-BaF3) [nM]	GI50 [1] [nM]	GI50 (P210/T315I-BaF3) [nM]	Compound	phosphorylation of STATS [2]
30	14	> 10000	–	CC(=O)Nc1cc(Oc2ccc(NC(=O)Cc3ccc(F)cc3F)cc2)ncn1 [Example 5, N-[4-(6-acetylamino-pyrimidin-4-yloxy)-phenyl]-2-(2,4-difluoro-phenyl)-acetamide]	significant inhibition
32	7	> 10000	> 10000	CC(=O)Nc1cc(Oc2ccc(NC(=O)Cc3ccccc3C(F)(F)F)cc2)ncn1 [Example 135, N-[4-(6-acetylamino-pyrimidin-4-yloxy)-phenyl]-2-(2-trifluoromethyl-phenyl)-acetamide]	significant inhibition
